From US20230151057A1, “LACTIC ACID BACTERIA GROWTH PROMOTER” (Asahi Group Holdings, Ltd., priority 2020, published 2023)
Ends that are not written are not given here.

What was measured:
Assay type in all cases: cell-based
[1] = system: Lactobacillus gasseri (FERM BP-11331); experiment: Growth-promoting effect on Lactobacillus gasseri in modified MRS medium (particle count)
Excerpt: Nitrogen sources in MRS medium were reduced to find a medium composition that achieves a total bacterial count of about 1.0×10^8 cell/mL to 1.0×10^9 cell/mL after culturing of each of the six bacterial strains Lactobacillus gasseri (FERNM BP-11331), Lactobacillus acidophilus (FERM BP-4981), Lactobacillus amylovorus (FERM BP-11255), Lactobacillus curvatus (NITE P-02033), Lactobacillus plantarum, and Lactobacillus brevis. This composition, named “modified MRS medium”, was used for the evaluation. Here, for the composition of the MRS medium, a composition described in a medium catalog provided by BD (Becton, Dickinson and Company) was used as a reference. The compositions of the MRS medium and the modified MRS medium are as follows. By chemical synthesis, 28 kinds of candidate peptides having the sequences shown below were provided. Each candidate peptide was added to the modified MRS medium at 0.25 mg/mL to provide a medium to be evaluated. The lactic acid bacterium Lactobacillus gasseri was inoculated at 1.0×10^7 cells/mL to the provided medium to be evaluated, and culture was carried out at a temperature of 37° C. for a culture period of 18 hours. The resulting culture was collected, and subjected to measurement of the particle concentration (particles/mL) as a characteristic value that can be used as an index of the bacterial cell growth, using a particle count analyzer (CDA-1000, Sysmex). The rate of increase (%) was calculated relative to a control value obtained using a medium to which no peptide was added, which was taken as 100%. Using the dipeptide LF (Leu-Phe) and an equimolar mixture of leucine (L) and phenylalanine (F), culture was carried out in the same manner as in Example 1, and the growth-promoting effects of the dipeptide and the amino acid mixture on the lactic acid bacterium were evaluated. Using a dipeptide (LF) as the peptide, the growth-promoting effect on a lactic acid bacterium was evaluated in the same manner except that the concentration of the dipeptide added was 0.1 mg/mL, 0.25 mg/mL, or 1.0 mg/mL.

[2] = system: Lactobacillus amylovorus (FERM BP-11255); experiment: Growth-promoting effect on Lactobacillus amylovorus in modified MRS medium (particle count); conditions: Example 3, peptide 0.25 mg/mL, 37° C., 18 hours; for Rate of increase: control = 100%
Excerpt: Nitrogen sources in MRS medium were reduced to find a medium composition that achieves a total bacterial count of about 1.0×10^8 cell/mL to 1.0×10^9 cell/mL after culturing of each of the six bacterial strains Lactobacillus gasseri (FERNM BP-11331), Lactobacillus acidophilus (FERM BP-4981), Lactobacillus amylovorus (FERM BP-11255), Lactobacillus curvatus (NITE P-02033), Lactobacillus plantarum, and Lactobacillus brevis. This composition, named “modified MRS medium”, was used for the evaluation. Here, for the composition of the MRS medium, a composition described in a medium catalog provided by BD (Becton, Dickinson and Company) was used as a reference. The compositions of the MRS medium and the modified MRS medium are as follows. By chemical synthesis, 28 kinds of candidate peptides having the sequences shown below were provided. Each candidate peptide was added to the modified MRS medium at 0.25 mg/mL to provide a medium to be evaluated. The lactic acid bacterium Lactobacillus gasseri was inoculated at 1.0×10^7 cells/mL to the provided medium to be evaluated, and culture was carried out at a temperature of 37° C. for a culture period of 18 hours. The resulting culture was collected, and subjected to measurement of the particle concentration (particles/mL) as a characteristic value that can be used as an index of the bacterial cell growth, using a particle count analyzer (CDA-1000, Sysmex). The rate of increase (%) was calculated relative to a control value obtained using a medium to which no peptide was added, which was taken as 100%. For eight kinds of candidate peptides having the sequences shown below, the growth-promoting effect on a lactic acid bacterium was evaluated in the same manner as in Example 1 except that Lactobacillus amylovorus was used instead of Lactobacillus gasseri.

Lactobacillus brevis = experiment: Growth-promoting effect on Lactobacillus brevis in modified MRS medium (particle count); conditions: Example 6, peptide 0.25 mg/mL, 37° C., 18 hours; for Rate of increase: control = 100%
Excerpt: Nitrogen sources in MRS medium were reduced to find a medium composition that achieves a total bacterial count of about 1.0×10^8 cell/mL to 1.0×10^9 cell/mL after culturing of each of the six bacterial strains Lactobacillus gasseri (FERNM BP-11331), Lactobacillus acidophilus (FERM BP-4981), Lactobacillus amylovorus (FERM BP-11255), Lactobacillus curvatus (NITE P-02033), Lactobacillus plantarum, and Lactobacillus brevis. This composition, named “modified MRS medium”, was used for the evaluation. Here, for the composition of the MRS medium, a composition described in a medium catalog provided by BD (Becton, Dickinson and Company) was used as a reference. The compositions of the MRS medium and the modified MRS medium are as follows. By chemical synthesis, 28 kinds of candidate peptides having the sequences shown below were provided. Each candidate peptide was added to the modified MRS medium at 0.25 mg/mL to provide a medium to be evaluated. The lactic acid bacterium Lactobacillus gasseri was inoculated at 1.0×10^7 cells/mL to the provided medium to be evaluated, and culture was carried out at a temperature of 37° C. for a culture period of 18 hours. The resulting culture was collected, and subjected to measurement of the particle concentration (particles/mL) as a characteristic value that can be used as an index of the bacterial cell growth, using a particle count analyzer (CDA-1000, Sysmex). The rate of increase (%) was calculated relative to a control value obtained using a medium to which no peptide was added, which was taken as 100%. For eight kinds of candidate peptides having the sequences shown below, the growth-promoting effect on a lactic acid bacterium was evaluated in the same manner as in Example 1 except that Lactobacillus brevis was used instead of Lactobacillus gasseri.

[3] = Example 1, peptide 0.25 mg/mL, 37° C., 18 hours, inoculum 1.0×10^7 cells/mL
[4] = Example 1, peptide 0.25 mg/mL, 37° C., 18 hours, control without peptide = 100%

Substance | Particle concentration [1, 3] | Rate of increase [1, 4] | Particle concentration [2] | Rate of increase [2] | Particle concentration (Lactobacillus brevis) | Rate of increase (Lactobacillus brevis) | Particle concentration ([1]; Comparative Example 1, dipeptide vs equimolar amino acid mixture, cultured as in Example 1) | Rate of increase ([1]; Comparative Example 1, dipeptide vs equimolar amino acid mixture, control = 100%) | Particle concentration ([1]; Example 7, addition concentration 0.1 mg/mL) | Rate of increase ([1]; Example 7, addition concentration 0.1 mg/mL, control = 100%) | Particle concentration ([1]; Example 7, addition concentration 0.25 mg/mL) | Rate of increase ([1]; Example 7, addition concentration 0.25 mg/mL, control = 100%) | Particle concentration ([1]; Example 7, addition concentration 1.0 mg/mL) | Rate of increase ([1]; Example 7, addition concentration 1.0 mg/mL, control = 100%)
AGPQTF | 2.5e+08 mL⁻¹ | 126% | 1.93e+08 mL⁻¹ | 118% | 1.16e+09 mL⁻¹ | 106% |  |  |  |  |  |  |  | 
APKPDYPIA (listed as Saccharomyces cerevisiae) [Ala-Pro-Lys-Pro-Asp-Tyr-Pro-Ile-Ala] | 2.37e+08 mL⁻¹ | 137% | 1.83e+08 mL⁻¹ | 112% | 1.12e+09 mL⁻¹ | 103% |  |  |  |  |  |  |  | 
Leu-Phe [LF] | 2.49e+08 mL⁻¹ | 118% | 2.08e+08 mL⁻¹ | 109% | 1.24e+09 mL⁻¹ | 114% | 3.88e+08 mL⁻¹ | 121% | 2.38e+08 mL⁻¹ | 112% | 2.49e+08 mL⁻¹ | 118% | 3.17e+08 mL⁻¹ | 150%
Leu-Pro-Trp-Gly (LPWG; listed as Saccharomyces cerevisiae) | 2.45e+08 mL⁻¹ | 142% | 2.13e+08 mL⁻¹ | 111% | 1.18e+09 mL⁻¹ | 108% |  |  |  |  |  |  |  | 
Pro-Ser-Val-Phe (PSVF; listed as Saccharomyces cerevisiae) | 2.32e+08 mL⁻¹ | 134% | 1.92e+08 mL⁻¹ | 118% | 1.16e+09 mL⁻¹ | 106% |  |  |  |  |  |  |  | 
Pro-Val-Phe [PVF] | 2.51e+08 mL⁻¹ | 137% | 2.07e+08 mL⁻¹ | 108% | 1.17e+09 mL⁻¹ | 107% |  |  |  |  |  |  |  | 
Pro-Val-Tyr [PVY] | 2.27e+08 mL⁻¹ | 121% | 1.98e+08 mL⁻¹ | 121% | 1.17e+09 mL⁻¹ | 107% |  |  |  |  |  |  |  | 
Val-Pro-Ala-Phe (VPAF; listed as Saccharomyces cerevisiae) | 2.62e+08 mL⁻¹ | 152% | 2.07e+08 mL⁻¹ | 108% | 1.16e+09 mL⁻¹ | 106% |  |  |  |  |  |  |  | 
